Test results taken from PMC10641717 (Journal of medicinal chemistry, 2023).
Values belong to the compound of their own block, whether it stands above or below them.

Tests used:
40 distinct BDs = test: BROMOscan BromoMAX panel; type: binding, human; conditions: for binding to other BDs in BROMOscan: 2 μM, BDs other than BRD7/BRD9; for selectivity in BROMOscan panel: 2 μM concentration
His-tagged BRD7 BD = target: T1, His-tagged BRD7 BD (Homo sapiens, UniProt Q9NPI1); test: Thermal shift assay; type: binding; conditions: compounds at 25, 10, or 1 μM
T1 sequence (Q9NPI1 131-235 limits assumed): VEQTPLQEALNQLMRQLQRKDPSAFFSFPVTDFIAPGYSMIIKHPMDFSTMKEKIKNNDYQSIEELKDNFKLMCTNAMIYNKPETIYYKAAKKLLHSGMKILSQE

His-tagged BRD9 BD = target: T2, His-tagged BRD9 BD (Homo sapiens, UniProt Q9H8M2); test: Thermal shift assay; type: binding; conditions: compounds at 25, 10, or 1 μM
T2 sequence (Q9H8M2 136-240 limits assumed): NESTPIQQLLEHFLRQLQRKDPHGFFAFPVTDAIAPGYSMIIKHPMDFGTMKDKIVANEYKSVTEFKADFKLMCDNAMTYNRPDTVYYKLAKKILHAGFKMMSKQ

22Rv1 cells = test: On-target activity assessment in 22Rv1 cells with BRD7 knockdown; type: cell-based, human; conditions: 2.5 or 5 μM, 4 days, two shRNA constructs
BRD7 BD = target: T3, BRD7 BD (Homo sapiens, UniProt Q9NPI1); test: NanoBRET target engagement in HEK293T cells
T3 sequence (Q9NPI1 131-235 limits assumed): T1 sequence (Q9NPI1 131-235 limits assumed)

LNCaP cells [1] = test: Growth inhibition, CellTiter-Glo, 4 days; type: cell-based, human; conditions: 5, 1, and 0.1 μM
BRPF1B BD [2] = target: T4, BRPF1B BD (Homo sapiens, UniProt P55201); test: BROMOscan BromoMAX panel; type: binding; conditions: 2 μM
T4 sequence (P55201 628-732 limits assumed): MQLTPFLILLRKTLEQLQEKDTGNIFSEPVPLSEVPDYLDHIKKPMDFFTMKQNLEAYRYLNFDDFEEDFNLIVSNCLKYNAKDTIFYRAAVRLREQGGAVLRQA

PC-3 cells = test: Growth inhibition, CellTiter-Glo, 4 days; type: cell-based, human; conditions: 5, 1, and 0.1 μM
[3] = system: LNCaP, C4–2 and PC3 cells; test: Dose curves over 7 days of treatment, CellTiter-Glo; type: cell-based, human
BRD9 BD = target: T5, BRD9 BD (Homo sapiens, UniProt Q9H8M2); test: Microscale thermophoresis; type: binding; conditions: 50 nM His-tagged BRD9, ligand from 50 μM
T5 sequence (Q9H8M2 136-240 limits assumed): T2 sequence (Q9H8M2 136-240 limits assumed)

His-tagged BRPF1B BD = target: T6, His-tagged BRPF1B BD (Homo sapiens, UniProt P55201); test: Thermal shift assay; type: binding; conditions: compounds at 25, 10, or 1 μM
T6 sequence (P55201 628-732 limits assumed): T4 sequence (P55201 628-732 limits assumed)

BRPF1B BD [4] = target: T4, BRPF1B BD; test: NanoBRET target engagement in HEK293T cells; type: cell-based
LNCaP cells [5] = test: RNA-Seq gene expression in LNCaP cells; type: cell-based, human; conditions: 1 μM, 72 h
BRD9 = target: T7, BRD9 (Homo sapiens, UniProt Q9H8M2); test: Cell fractionation assay, BRD9 bound to chromatin; type: cell-based; conditions: HEK293T, 10 μM, 24 h
T7 sequence (Q9H8M2 1-597): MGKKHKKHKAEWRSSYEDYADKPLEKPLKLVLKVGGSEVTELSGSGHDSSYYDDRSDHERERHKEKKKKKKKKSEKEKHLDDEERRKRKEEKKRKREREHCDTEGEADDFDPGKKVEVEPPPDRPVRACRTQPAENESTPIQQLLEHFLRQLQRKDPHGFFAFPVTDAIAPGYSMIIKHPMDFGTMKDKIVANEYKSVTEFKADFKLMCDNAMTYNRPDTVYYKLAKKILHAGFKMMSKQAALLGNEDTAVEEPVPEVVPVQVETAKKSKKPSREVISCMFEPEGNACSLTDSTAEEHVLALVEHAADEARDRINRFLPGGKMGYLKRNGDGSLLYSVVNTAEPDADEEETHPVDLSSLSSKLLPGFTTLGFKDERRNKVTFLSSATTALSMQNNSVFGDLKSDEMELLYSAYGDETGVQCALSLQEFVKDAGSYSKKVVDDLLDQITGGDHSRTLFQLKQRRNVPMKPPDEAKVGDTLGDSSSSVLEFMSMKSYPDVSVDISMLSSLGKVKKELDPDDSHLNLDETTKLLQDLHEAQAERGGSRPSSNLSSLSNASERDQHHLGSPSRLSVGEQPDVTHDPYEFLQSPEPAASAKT

SMILES: Cc1cc(C)cc(-c2cn(C)c(=O)c3ccccc23)c1 [1–38, 4-(3,5-Dimethylphenyl)-2-methylisoquinolin-1(2H)-one]
binding to other BDs in BROMOscan (40 distinct BDs): no binding to other BDs
stabilization / Tm increase of BRD7 BD (TSA) (His-tagged BRD7 BD): stabilized and increased the Tm
stabilization / Tm increase of BRD9 BD (TSA) (His-tagged BRD9 BD): stabilized and increased the Tm

SMILES: COc1ccc(-c2ccc3c(C)cc(=O)n(C)c3c2)c(C)n1 [1–78, 7-(6-Methoxy-2-methylpyridin-3-yl)-1,4-dimethylquinolin-2(1H)-one]
viability of 22Rv1 cells with BRD7 knockdown (22Rv1 cells): not significantly affected
IC50 (BRD7 BD): 800 nM
selectivity in BROMOscan panel (40 distinct BDs): showed selectivity for BRD7 over BRD9
stabilization / Tm increase of BRD7 BD (TSA) (His-tagged BRD7 BD): increased the Tm
LNCaP cell growth (LNCaP cells [1]): inhibited the cell growth
binding to BRPF1B BD in BROMOscan (BRPF1B BD [2]): off-target binding
PC-3 cell growth (PC-3 cells): active in PC-3 only at the highest concentration
sensitivity of LNCaP and C4–2 cells relative to PC3 cells [3]: 3−6 times
binding to BRD9 (MST) (BRD9 BD): no binding
stabilization of BRPF1B BD (TSA) (His-tagged BRPF1B BD): modest stabilization of BRPF1B at the highest concentration (25 μM)

SMILES: COc1cc(-c2cn(C)c(=O)c3cnccc23)cc(OC)c1CN(C)C [BI7273, reference compound]
stabilization / Tm increase of BRD7 BD (TSA) (His-tagged BRD7 BD): binding and stabilization
LNCaP cell growth (LNCaP cells [1]): little to no effect
PC-3 cell growth (PC-3 cells): little to no effect

SMILES: COc1ccccc1C(=O)Nc1cc2c(cc1N1CCCCC1)n(C)c(=O)n2C [GSK-5959, reference compound]
LNCaP cell growth (LNCaP cells [1]): little to no effect
PC-3 cell growth (PC-3 cells): little to no effect

SMILES: CCn1cc(-c2cccc(C(F)(F)F)c2)c2sc(C(=N)NC3CCS(=O)(=O)CC3)cc2c1=O [I-BRD9]
BRD9 bound to chromatin after treatment (BRD9): significantly reduced BRD9 from chromatin

More lines, main results first:

IC50 (BRD7 BD): 1200 nM
stabilization / Tm increase of BRD7 BD (TSA) (His-tagged BRD7 BD): increased the Tm
binding to BRPF1B BD in BROMOscan (BRPF1B BD [2]): off-target binding
IC50 (BRPF1B BD [4]): > 10000 nM
binding to BRD9 (MST) (BRD9 BD): no binding
SMILES: COc1ccc(-c2ccc3c(C)cc(=O)n(C)c3c2)c(OC)n1 [2–77, 7-(2,6-Dimethoxypyridin-3-yl)-1,4-dimethylquinolin-2(1H)-one]
viability of 22Rv1 cells with BRD7 knockdown (22Rv1 cells): less affected
selectivity in BROMOscan panel (40 distinct BDs): showed selectivity for BRD7 over BRD9
LNCaP cell growth (LNCaP cells [1]): inhibited the cell growth
PC-3 cell growth (PC-3 cells): active in PC-3 only at the highest concentration
sensitivity of LNCaP and C4–2 cells relative to PC3 cells [3]: 3−6 times
GSEA Hallmark_Androgen_Response enrichment (LNCaP cells [5]): significant and strong negative enrichment

binding to other BDs in BROMOscan (40 distinct BDs): no binding to other BDs
SMILES: COc1ccc2ccccc2c1-c1ccc2c(C)cc(=O)n(C)c2c1 [2–81, 7-(2-Methoxynaphthalen-1-yl)-1,4-dimethylquinolin-2(1H)-one]

stabilization / Tm increase of BRD7 BD (TSA) (His-tagged BRD7 BD): stabilized only BRD9 BD
stabilization / Tm increase of BRD9 BD (TSA) (His-tagged BRD9 BD): stabilized only BRD9 BD
SMILES: COc1ccc(-c2cn(C)c(=O)c3ccccc23)c(OC)n1 [2–88, 4-(2,6-Dimethoxypyridin-3-yl)-2-methylisoquinolin-1(2H)-one]
